Laboratory results from publication PMC9851200, “Multiparameter phenotypic screening for endogenous TFEB and TFE3 translocation identifies novel chemical series modulating lysosome function” (Autophagy, 2022).
Entries after “also recorded” stand apart in the source; their conditions may differ. Read-outs that look alike come from different tables or passages of the source.

What was measured:
[1] = system: endogenous TFE3; test: TFE3 nuclear translocation, immunocytochemistry high-content imaging; format: cell-based
[2] = system: endogenous TFEB; test: TFEB nuclear translocation, immunocytochemistry high-content imaging; format: cell-based
[3] = system: SH-SY5Y cells
Excerpt: The PKIS2 Library was supplied by The Structural Genomics Consortium at the University of North Carolina at Chapel Hill.

[4] = system: SH-SY5Y cells; conditions: human
[5] = system: SH-SY5Y cells; conditions: human; remark: listed apart in the source
Description: (§1) Total cell lysis with 5 µL 5% Triton-X 100 (Sigma-Aldrich, T8787) is used as a positive control for the assay and toxicity is expressed as a percentage of luminescence under DMSO conditions.

[6] = system: SH-SY5Y cells; test: Nuclear count from microscopy images (cellular growth and toxicity); conditions: PKIS2 primary screening
[7] = system: SH-SY5Y cells; test: AK (adenylate kinase) release ToxiLight cytotoxicity assay; conditions: for AK: PKIS2 primary screening
Description: as §1

[8] = system: SH-SY5Y cells; test: Chemotype enrichment analysis of PKIS2 primary screen hit categories; conditions: PKIS2 primary screening, hit category
[9] = PKIS2 primary screening, DQ Red BSA intensity
[10] = PKIS2 primary screening, DQ Red BSA spot count

Row | Structure (SMILES) | TFE3 % ([1]; PKIS2 primary screening) [%] | TFEB % ([2]; PKIS2 primary screening) [%] | Nuclear Count [6] | Nuclear Count [4] | AK [7] | Outcome [8] | DQ Intensity [3, 9] | DQ Spot [3, 10] | other results
1 | O=C(Nc1n[nH]c2nc(-c3cccs3)c(Br)cc12)C1CCCC1 [SB-743341] | – | – | – | – | – | – | – | – | TFE3 % [1]: 12.29%; TFEB % [2]: 21.21%; DQ Intensity [3]: 118.79; DQ Spot [3]: 104.54; Nuclear Count ([4]; SH-SY5Y cells, 24 h, 1 µM): 111.90; AK ([5]; SH-SY5Y cells, 24 h, 1 µM): 91.49
2 | COc1cccc(C2=C(Nc3ccc(Cl)c(C(=O)O)c3)C(=O)NC2=O)c1 [UNC10225038A] | – | – | – | – | – | – | – | – | TFE3 % [1]: 15.59%; TFEB % [2]: 4.97%; DQ Intensity [3]: 120.07; DQ Spot [3]: 110.06; Nuclear Count ([4]; SH-SY5Y cells, 24 h, 1 µM): 91.66; AK ([5]; SH-SY5Y cells, 24 h, 1 µM): 67.98
3 | COc1ccccc1C1=C(Nc2cccc(O)c2)C(=O)NC1=O [UNC10225043A] | – | – | – | – | – | – | – | – | TFE3 % [1]: 13.36%; TFEB % [2]: 8.14%; DQ Intensity [3]: 136.47; DQ Spot [3]: 112.45; Nuclear Count ([4]; 24 h, 1 µM): 83.80; AK ([5]; 24 h, 1 µM): 125.63
4 | O=c1cc(N2CCOCC2)nc2n(Cc3cccc(Cl)c3Cl)ccn12 [UNC10225167A] | 15.96 | 3.69 | 101.24 | – | – | – | – | – | DQ Intensity ([3]; PKIS2 primary screening): 91.40; DQ Spot ([3]; PKIS2 primary screening): 112.20; AK [5]: 151.05
5 | CN(C)CC(O)COc1ccc(Nc2nccc(-c3cnn4nc(N5CCOCC5)ccc34)n2)cc1 (stereo not shown) [UNC10225197A] | – | – | – | 103.35 | 142.32 | – | – | – | TFE3 % [1]: 12.57%; TFEB % [2]: 3.40%; DQ Intensity [3]: 107.33; DQ Spot [3]: 110.97
6 | CC(C)(CN)c1nc(-c2ccc(Cl)c(O)c2)c(-c2ccncc2)[nH]1.O=C(O)C(F)(F)F [UNC10225206A] | 7.79 | 8.68 | – | 76.70 | 94.20 | DQ Only | 164.60 | 127.42 | –
7 | CC(C)(CN)c1nc(-c2ccc(Cl)c(O)c2)c(-c2ccncc2)[nH]1.O=C(O)C(F)(F)F [UNC10225206B] | 3.59 | 5.00 | – | 109.20 | 116.08 | DQ Only | 150.27 | 119.19 | –
8 | CCCCc1nn2ncccc2c1-c1ccnc(NC2CC2)n1 [UNC10225247A] | 6.63 | 2.59 | – | 77.00 | 99.47 | – | – | – | DQ Intensity ([3]; PKIS2 primary screening): 77.25; DQ Spot ([3]; PKIS2 primary screening): 98.14
9 | CC(C)Oc1ccc2c(-c3ccnc(Nc4ccc(N5CCN(C)CC5)cc4)n3)cnn2n1 [UNC10225414A] | 8.69 | 3.20 | – | 127.68 | 109.44 | – | – | – | DQ Intensity ([3]; PKIS2 primary screening): 74.33; DQ Spot ([3]; PKIS2 primary screening): 86.73
10 | COc1cccc(-c2cc(-c3c[nH]nc3-c3ccccn3)ccn2)c1 [UNC10225448A] | 7.93 | 6.19 | 116.22 | – | 109.46 | LYSO TOXIC | 60.35 | 69.14 | –
11 | CCCCc1nn2ncccc2c1-c1ccnc(Nc2ccc(N3CCN(C)CC3)cc2)n1 [UNC10225453A] | 20.14 | 12.73 | – | 74.87 | 108.81 | – | – | – | DQ Intensity ([3]; PKIS2 primary screening): 158.78; DQ Spot ([3]; PKIS2 primary screening): 101.42
12 | CN(C)S(=O)(=O)c1cc(-c2ccc3nccc(-c4cccc(S(N)(=O)=O)c4)c3c2)cnc1N [UNC10225457A] | 3.13 | 2.30 | 78.66 | – | 74.17 | LYSO TOXIC | 100.41 | 77.18 | –
13 | Cl.Oc1cccc(Nc2ccnc3cc(-c4ccncc4)ccc23)c1 [UNC10225467A] | 10.65 | 5.92 | 88.58 | – | 125.78 | LYSO TOXIC | 34.95 | 51.42 | –
14 | Cc1ccc(O)cc1Nc1ccnc2ccc(C(C)(C)C)cc12 [UNC10225479A] | 19.57 | 23.46 | 78.69 | – | 75.82 | LYSO TOXIC | 91.49 | 60.27 | –
15 | COc1cc2nccc(Nc3ccc(Oc4ccccc4)cc3)c2cc1OC.Cl [UNC10225483A] | 50.12 | 23.88 | 95.56 | – | 74.22 | LYSO TOXIC | 58.49 | 52.29 | –
16 | CN1CCN(Cc2cccc(-c3ccc4c(Nc5ccc(Oc6ccccc6)cc5)ccnc4c3)c2)CC1 [UNC10225484A, reference compound] | 42.01 | 9.01 | 88.62 | – | 84.86 | LYSO TOXIC | 129.44 | 68.80 | TFE3 translocation (in words) ([1]; SH-SY5Y, 24 h treatment): some TFEB and TFE3 translocation; also recorded: modest TFEB and 3 translocation at 2 µM; TFEB translocation (in words) ([2]; SH-SY5Y, 24 h treatment): some TFEB and TFE3 translocation; also recorded: modest TFEB and 3 translocation at 2 µM; DQ Red BSA spot count / active lysosome count (in words) ([3]; SH-SY5Y, 24 h treatment): reduction in active lysosome spots; also recorded: correlated drop in DQ Red BSA spot count; Cellular toxicity (AK release and nuclear count, in words) ([7]; SH-SY5Y, 24 h treatment): no indication of cellular toxicity
17 | COc1cc2ncnc(Nc3ccc4nc(-c5ccccc5)[nH]c4c3)c2cc1OC.Cl [UNC10225504A] | 30.79 | 2.24 | 107.73 | – | 94.98 | TFE3 | 98.46 | 113.89 | –
